Assay results as given in ChEMBL document CHEMBL3046302, “Antifungal constituents from the seeds of Allium fistulosum L” (J Agric Food Chem, 2002).
Activity calls are given as the source filed them. The calls are words filed in the database; no cut-off is given here.

Tested on: Phytophthora capsici
Experiment: Antifungal activity against Phytophthora capsici assessed as fungal growth inhibition at 0.3 to 0.5 mM after 0.5 to 4.5 days
Format: functional, organism-based

**Q.** CCCCCCC(O)C(O)/C=C/C(O)CCCCCCC(=O)O (configuration not stated) was tested. Which “growth inhibition (GI)” value did it give?
**A.** Active

**Q.** Which “growth inhibition (GI)” value does the source give for CCCCCCC(O)C(O)/C=C/C(O)CCCCCCC(=O)OCC(O)CO (configuration not stated) here?
**A.** Active
